Experimental data taken from publication PMC5111108, “An insecticide resistance-breaking mosquitocide targeting inward rectifier potassium channels in vectors of Zika virus and malaria” (Scientific Reports, 2016).
Like-named read-outs stand apart in the source and are kept apart here.

Tests used:
hKir2.1 = biological target: T1, hKir2.1 (Homo sapiens, UniProt P63252); assay: Tl+ flux assay, mammalian Kir2.1; format: cell-based
T1 construct: expressed in transfected cells
T1 sequence (P63252 1-427): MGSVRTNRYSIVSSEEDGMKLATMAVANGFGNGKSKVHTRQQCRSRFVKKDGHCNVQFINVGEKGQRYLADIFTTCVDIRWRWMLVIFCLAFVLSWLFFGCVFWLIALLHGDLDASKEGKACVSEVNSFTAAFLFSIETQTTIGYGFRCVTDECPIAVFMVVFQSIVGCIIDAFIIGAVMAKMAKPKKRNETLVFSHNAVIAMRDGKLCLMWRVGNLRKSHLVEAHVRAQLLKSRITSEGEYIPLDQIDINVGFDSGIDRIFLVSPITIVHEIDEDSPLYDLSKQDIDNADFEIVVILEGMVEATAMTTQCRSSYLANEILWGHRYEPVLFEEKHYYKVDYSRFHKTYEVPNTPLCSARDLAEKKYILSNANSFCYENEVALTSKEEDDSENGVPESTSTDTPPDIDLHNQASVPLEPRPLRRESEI
Method: The open-reading frame of a full-length cDNA encoding AnKir1 cloned from An. gambiae Malpighian tubules (Genbank Accession # KJ596497)[17] was sub-cloned into the pcDNA5/TO expression vector (Life Technologies) and used for stable cell line generation, as described previously. Expression constructs for mammalian Kir channels were developed and validated in previous studies by our group.
Tl+ flux assay development
Tl+ flux assays were performed essentiall y as described previousl y (1). Briefl y, stabl y transfect ed T-Rex -HEK- 293- AnKir1 cells were cultured overnight in 384-well plates in media containing DMEM, 10% dial yz ed FBS and 1μg/ m L tetrac ycline to induce channel expression
(Fig. S1A). The next day, the cell culture medium was replaced with a dye-loading solution containing assay buffer (Hanks Balanced Salt Solution with 20 mM HEPES, pH 7.3), 0.01% (w/v) Pluronic F-127 (Li fe Technologies, Carlsbad, CA), and 1.2 μM of the thallium-sensitive dye Thallos-AM (TEFl abs, Austin, TX). Following 1 hr incubation at room temperature, the d ye-loading solution was washed from the plates and replaced with 20 μ L/well of assa y buffer. The plates were transferred t o a Ham amatsu Functional Drug Screening System 6000 (FDSS6000; Hamamatsu, Tokyo, J apan) where 20 μ L/well of test compounds in assay buffer (as prepared below) were added and allowed to incubate with the cells for 20 min. After the incubation period, a baseline recordi ng was collected at 1 Hz for 10 s (excitation 470 ± 20 nm, emission 540 ± 30 nm) followed by a t hallium stimulus buffer addition (10 μL/well) and data collection for an additional 4 min. The Tl + stimulus buffer contains in (mM) 125 NaHCO3, 1.8 CaSO4, 1 MgSO4, 5 glucose, 12 Tl2SO4, 10 HEPES, pH 7.4. For Tl + flux assays on Kir2.x, Kir4.1 and Kir6.2/SUR1 ex pressing cells, the Tl+ stimulus buffer contained 1.8 mM Tl 2SO4. […]
Prism software (GraphPad Software) was used to generate CRC from Tl+ fl ux ..Half-inhibition concentration (IC50) values were calculated from fits using a four parameter logistic equation.
High-throughput screeni ng
The test compounds were transferred to daughter pol yprop ylene 384-well plates (G reiner Bio-One, Monroe, NC) using an Echo555 liquid handler (Labcyte, Sunnyvale, CA), and then diluted into assay buffer to generat e a 2X stock in 0.6% DMSO (0.3% final). […]
Concentration- response curves (CRCs) were gener ated b y screening compounds at 3-fold dilution series (1 nM - 30 μM).
Tl+ flux data were anal yzed as previousl y d escri bed (2, 3) using a combination of Excel (Microsoft Corp, Redmond, WA) with XLfit add-in (IDBS, Guildford, Surre y, UK), Ori ginPro (Ori gin Lab, Northampton, MA), and GraphPad Prism (GraphPad Software, San Diego, CA, USA) software. R aw data were opened in Excel and each data point in a gi ven trace was divided by the first data point from that trace (static ratio) followed by subtraction of data points from control traces gen erated in presence of vehicl e co ntrols. The slope of the fluorescen ce increas e beginning 5 s after Tl+ addition and ending 15 s after Tl + addition was calcu lated.

AnKir1 = biological target: T2, AnKir1 (Anopheles gambiae, UniProt A0A075M2J8); assay: Whole-cell patch clamp of AnKir1 in HEK-293T cells; format: cell-based; conditions: for IC50: currents at -120 mV
T2 sequence (A0A075M2J8 1-555): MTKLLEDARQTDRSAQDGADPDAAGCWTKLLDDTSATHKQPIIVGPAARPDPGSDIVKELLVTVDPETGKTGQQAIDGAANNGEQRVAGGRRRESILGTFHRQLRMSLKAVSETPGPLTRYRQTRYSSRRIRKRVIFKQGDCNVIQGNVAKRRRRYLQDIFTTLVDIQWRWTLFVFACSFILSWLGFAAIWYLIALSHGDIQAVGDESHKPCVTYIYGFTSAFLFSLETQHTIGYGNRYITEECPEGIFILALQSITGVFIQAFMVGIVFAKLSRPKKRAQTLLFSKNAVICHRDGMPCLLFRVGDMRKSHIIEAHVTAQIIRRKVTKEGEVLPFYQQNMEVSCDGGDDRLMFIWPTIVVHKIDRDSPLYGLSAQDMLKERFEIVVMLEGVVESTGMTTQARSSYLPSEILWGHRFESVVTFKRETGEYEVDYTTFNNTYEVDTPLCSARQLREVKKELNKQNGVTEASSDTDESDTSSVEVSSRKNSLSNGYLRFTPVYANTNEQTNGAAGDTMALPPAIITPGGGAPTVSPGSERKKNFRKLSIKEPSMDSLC
Text: Transiently transfected HEK-293T cells expressing AnKir1 cells were voltage clamped in the whole-cell configuration of the patch clamp technique, as described previously. The extracellular bath solution contained (in mM): 135 NaCl, 5 KCl, 2 CaCl2, 1 MgCl2, 5 glucose, 10 HEPES free acid, pH 7.4, 290 mOsm/kg H2O. The pipette solution contained (in mM): 135 KCl, 2 MgCl2, 1 EGTA, 10 HEPES free acid, 2 Na2ATP (Roche, Indianapolis, IN), pH 7.3, 275 mOsm. Cells were voltage clamped at −75 mV, stepped to −120 mV for 200 msec, and then ramped to 120 mV at a rate of 2.4 mV/msec. Concentration-response curves (CRCs) were constructed by measuring the effects of increasing doses of inhibitors on AnKir1 currents at −120 mV. All recordings were made at room temperature (20–23 °C).
Patch clamp electrophysiology
Patch electrodes were pulled from silanized 1.5 mm outer diameter borosilicate microhematocrit tubes using a P-1000 Flaming/Brown micropipette puller (Sutter Instrument, Novato CA, USA). Electrode resistance ranged from 2 -4 MΩ. Whole-cell currents were recorded under voltage-clamp conditions using an Axopatch 200B amplifier (Molecular D evices, Sunn yvale, CA). Electri cal conn ections to the amplifier were made using Ag/AgCl wires and 3 M KCl/agar bridges. El ectroph ysiologi cal data were collected at 5 kHz and filtered at 1 kHz.
Data acquisition and anal ys is were performed using pClamp 9.2 software (Axon Instruments). […]

[1] = Tl+ flux, Tables S2/S3 and supplemental text, read-out: hKir2.1 IC50
[2] = Tl+ flux assay, read-out: Kir2.1 IC50 (Tl+ flux)

O=C(Cn1nc(C(F)(F)F)c2c1CCCC2)N1CCCC2CCCCC21 (stereo not shown) [Compound 9]
IC50 (hKir2.1; [1]): > 30 µM

CC1CC(C)CN(C(=O)Cn2nc(C(F)(F)F)c3c2CCCC3)C1 (stereo not shown) [Compound 13]
IC50 (hKir2.1; [1]): > 30 µM

O=C1CCCc2c1ccn2CC(=O)N1CCCc2ccccc21 [Compound 4]
IC50 (hKir2.1; [1]): > 30 µM

O=C(Cn1nc(C(F)(F)F)c2c1CCCC2)N1CCCC(c2ccccc2)C1 (stereo not shown) [Compound 12]
IC50 (hKir2.1; [1]): > 30 µM

O=C(Cn1nc(C(F)(F)F)c2c1CCCC2)NC1CCC1 [VU937]
IC50 (AnKir1): 29.7 µM
AnKir1 inhibition relative to VU041 (fold less) (AnKir1; patch clamp): 60 fold

O=C(Cn1nc(C(F)(F)F)c2c1CCCC2)N1CCCc2ccccc21 [VU041, 1-(3,4-dihydroquinolin-1(2H)-yl)-2-(3-(trifluoromethyl)-4,5,6,7-tetrahydro-1H-indazol-1-yl)ethan-1-one]
IC50 (hKir2.1; [2]): 12.7 µM
IC50 (hKir2.1; [1]): 11.3 µM
Hill coefficient (patch clamp, AnKir1) (AnKir1): 1.3
time-course and reversibility of AnKir1 inhibition (AnKir1; 10 μM, wash-out with control saline): rapid and partially reversible
IC50 (AnKir1): 0.496 µM

O=C(Cn1ncc2c1CCOC2)N1CCCc2ccccc21 [VU730]
IC50 (hKir2.1; [2]): > 30 µM
IC50 (AnKir1): 0.717 µM
